From PubChem BioAssay AID264 (DTP/NCI, 2004) come the findings set out here.

In the assay the test system is nude mice, LX-1 lung xenograft intrarenal, tumor weight T/C. Briefly: NCI In Vivo Anticancer Drug Screen. Data for tumor model Human Lung LX-1 Xenograft (intrarenal inoculation) in NU/NU Swiss (nude) mice. Conditions: endpoint: mean tumor weight change, higher = larger tumour. The procedure, abridged:
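Activity was scored by measuring tumors in treated animals and in vehicle controls, then reporting the treated result as a fraction of the control result.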
Background: Xenograft models place foreign cells or tissue in a host animal.

[1] abbreviates: dose: 200.0 mg/kg/injection, schedule: Q04DX003 (sc), vehicle: Klucel (hydroxypropylcellulose) (HPC).
[2] abbreviates: dose: 800.0 mg/kg/injection, schedule: Q04DX003 (sc), vehicle: Klucel (hydroxypropylcellulose) (HPC).
[3] abbreviates: dose: 1200.0 mg/kg/injection, schedule: Q04DX003 (sc), vehicle: Klucel (hydroxypropylcellulose) (HPC).
The mark [4] stands for this setting: dose: 2400.0 mg/kg/injection, schedule: Q04DX003 (sc), vehicle: Klucel (hydroxypropylcellulose) (HPC).
Where [5] appears, read: dose: 300.0 mg/kg/injection, schedule: Q04DX003 (sc), vehicle: saline with Tween-80.
[6] abbreviates: dose: 600.0 mg/kg/injection, schedule: Q04DX003 (sc), vehicle: saline with Tween-80.
The mark [7] stands for this setting: dose: 1200.0 mg/kg/injection, schedule: Q04DX003 (sc), vehicle: saline with Tween-80.
Setting [8] is: dose: 2400.0 mg/kg/injection, schedule: Q04DX003 (sc), vehicle: saline with Tween-80.

Several values for one entry are separate records, joined by “and”; a condition that tells them apart may be missing. Equal entries are not always repeated. Inconclusive results are not listed.

As to `CCCCCCCCCCCCCCC/C([O-])=N/[N+](C)(C)CC(C)O` (stereo unspecified), the T/C by setting is: (dose: 100.0 mg/kg/injection, schedule: Q04DX003 (sc), vehicle: Klucel (hydroxypropylcellulose) (HPC)) 66 % of control; under setting [1], 54 % of control; (dose: 400.0 mg/kg/injection, schedule: Q04DX003 (sc), vehicle: Klucel (hydroxypropylcellulose) (HPC)) 103 % of control; under setting [2], 77 % of control; under setting [3], 77 % of control; under setting [4], 69 % of control.

Turning to `CCOC(=O)c1[nH]c2cccc3c2c1CC(Br)C3=O` (stereo unspecified), the T/C is, setting by setting: under setting [5], 87 % of control; under setting [6], 88 % of control; under setting [7], 84 % of control; under setting [8], 67 % of control.

As for `CC(Cc1ccc(O)c(O)c1)C(C)Cc1ccc(O)c(O)c1` (stereo unspecified), the T/C runs as follows: (dose: 300.0 mg/kg/injection, schedule: Q04DX003 (sc), vehicle: saline + alcohol) 107 % of control; (dose: 600.0 mg/kg/injection, schedule: Q04DX003 (sc), vehicle: saline + alcohol) 90 % of control; (dose: 1200.0 mg/kg/injection, schedule: Q04DX003 (sc), vehicle: saline + alcohol) 104 % of control; (dose: 2400.0 mg/kg/injection, schedule: Q04DX003 (sc), vehicle: saline + alcohol) 66 % of control.

For `Cc1c2cc[n+](C)cc2c(C)c2c1[nH]c1ccc(O)cc12`, the T/C (dose: 1.5 mg/kg/injection, schedule: Q04DX003 (sc), vehicle: water) is 151 % of control.

Take `C[C@]12C=CC(=O)C=C1CC[C@@H]1[C@@H]2C(=O)C[C@@]2(C)[C@H]1CC[C@]2(O)C(=O)CO`: the T/C is 50 % of control (dose: 300.0 mg/kg/injection, schedule: Q04DX003 (sc), vehicle: Klucel (hydroxypropylcellulose) (HPC)); 56 % of control (dose: 600.0 mg/kg/injection, schedule: Q04DX003 (sc), vehicle: Klucel (hydroxypropylcellulose) (HPC)); 47 % of control under setting [3]; 35 % of control under setting [4].

As for `c1ccc2c(NCCCCCCNc3c4ccccc4nc4ccccc34)c3ccccc3nc2c1`, where the note is “dose: 5.0 mg/kg/injection, schedule: Q01DX010 (sc), vehicle: Klucel (hydroxypropylcellulose) (HPC)”, the T/C was 102 % of control.

For the molecule `CCCCCCCCCCCCCCCC(=O)Nc1ccn(C2OC(CO)C(O)C2O)c(=O)n1` (stereo unspecified), the T/C (dose: 150.0 mg/kg/injection, schedule: Q04DX003 (sc), vehicle: water) was 32 % of control and 33 % of control.

For `N=c1nc2n(cc1F)[C@@H]1O[C@H](CO)[C@@H](O)[C@@H]1O2`, the T/C is, setting by setting: (dose: 300.0 mg/kg/injection, schedule: Q04DX003 (sc), vehicle: suspension in saline) 102 % of control; (dose: 600.0 mg/kg/injection, schedule: Q04DX003 (sc), vehicle: suspension in saline) 57 % of control; (dose: 1200.0 mg/kg/injection, schedule: Q04DX003 (sc), vehicle: suspension in saline) 80 % of control; (dose: 2400.0 mg/kg/injection, schedule: Q04DX003 (sc), vehicle: suspension in saline) 87 % of control.

On to `CN(C)C1C(=O)C(C(=O)NP(=O)(NCCCO)N(CCCl)CCCl)=C(O)C2(O)C(=O)C3=C(O)c4c(O)cccc4C(C)(O)C3CC12` (stereo unspecified), for which the T/C under setting [5] is 47 % of control.

Consider `CCC1=C2C(=O)c3ccccc3C2=C(C)S(=O)(=O)O1`, for which the T/C under setting [5] is 66 % of control, the T/C under setting [6] was 70 % of control, the T/C under setting [7] was 89 % of control and the T/C under setting [8] was 86 % of control.

In the case of `C[n+]1ccc2cc(N)c3c4ccccc4sc3c2c1`, the T/C is 67 % of control (dose: 6.25 mg/kg/injection, schedule: Q04DX003 (sc), vehicle: saline with Tween-80); 93 % of control (dose: 12.5 mg/kg/injection, schedule: Q04DX003 (sc), vehicle: saline with Tween-80); 70 % of control (dose: 25.0 mg/kg/injection, schedule: Q04DX003 (sc), vehicle: saline with Tween-80); 74 % of control (dose: 50.0 mg/kg/injection, schedule: Q04DX003 (sc), vehicle: saline with Tween-80).

For the molecule `Ic1ncnc2c1ncn2C1CCCO1` (stereo unspecified), the T/C reads like this: under setting [1], 168 % of control; under setting [2], 107 % of control; (dose: 1600.0 mg/kg/injection, schedule: Q04DX003 (sc), vehicle: Klucel (hydroxypropylcellulose) (HPC)) 41 % of control.

`COc1c(O)c2c(c3cc(C(=O)N4CCc5c4c(O)c(OC)c4[nH]c(C(=O)N6CC7CC78C6=CC(=O)c6[nH]cc(C)c68)cc54)[nH]c13)CCN2C(N)=O` (stereo unspecified): the T/C (dose: 6.25 micrograms/kg/injection, schedule: Q01DX010 (sc), vehicle: DMSO) was 121 % of control; the T/C (dose: 12.5 micrograms/kg/injection, schedule: Q01DX010 (sc), vehicle: DMSO) is 107 % of control; the T/C (dose: 25.0 micrograms/kg/injection, schedule: Q01DX010 (sc), vehicle: DMSO) was 68 % of control; the T/C (dose: 50.0 micrograms/kg/injection, schedule: Q01DX010 (sc), vehicle: DMSO) is 66 % of control.
